{"source": "the supplement of paper PMC12325586", "system": "MIA PaCa-2", "method": "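MIA PaCa-2 Tet-on shOFD1 pancreatic cancer cells (2000 cells/well, 96-well) were treated with Selleck FDA-approved library compounds at 0, 1, 5, 10, 25 and 50 µM, with extra concentrations added where needed, for 72 h at 37 °C. Knockdown wells also received 100 ng/mL doxycycline; control wells received DMSO without doxycycline. Viability was read by CCK-8 absorbance at 450 nm and normalised to DMSO control wells. IC50 was fitted in GraphPad Prism as a 4-parameter logistic with bottom fixed at 0 and top fixed at 1; at least 3 technical replicate wells per condition.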", "key": {"[1]": {"conditions": "OFD1 knockdown: no (no doxycycline)"}, "[2]": {"conditions": "OFD1 knockdown: yes (Tet-on shOFD1, 100 ng/mL doxycycline)"}}}
{"smiles": "Cn1cc(CNCC2CCN(c3ncc(C(=O)NO)cn3)CC2)c2ccccc21", "note": "[S1096]", "values": [{"measurement": "IC50 cell viability", "setting": "[1]", "value": 0.41, "unit": "µM"}, {"measurement": "IC50 cell viability", "setting": "[2]", "value": 0.39, "unit": "µM"}]}
{"smiles": "Nc1nc(CC(=O)Nc2ccc(CCNC[C@H](O)c3ccccc3)cc2)cs1", "note": "[S4009]", "values": [{"measurement": "IC50 cell viability", "setting": "[1]", "value": 27, "unit": "µM"}, {"measurement": "IC50 cell viability", "setting": "[2]", "value": 23.9, "unit": "µM"}]}
{"smiles": "Cc1ccc([C@@H]2O[C@H](CO)[C@@H](O)[C@H](O)[C@H]2O)cc1Cc1ccc(-c2ccc(F)cc2)s1", "note": "[S2760]", "values": [{"measurement": "IC50 cell viability", "setting": "[1]", "value": 21.9, "unit": "µM"}, {"measurement": "IC50 cell viability", "setting": "[2]", "value": 21.6, "unit": "µM"}]}
{"smiles": "Cc1ccc(F)c(NC(=O)Nc2ccc(-c3cccc4[nH]nc(N)c34)cc2)c1", "note": "[S1003]", "values": [{"measurement": "IC50 cell viability", "setting": "[1]", "value": 6.31, "unit": "µM"}, {"measurement": "IC50 cell viability", "setting": "[2]", "value": 6.22, "unit": "µM"}]}
{"smiles": "CC1(C)CCC(CN2CCN(c3ccc(C(=O)NS(=O)(=O)c4ccc(NCC5CCOCC5)c([N+](=O)[O-])c4)c(Oc4cnc5[nH]ccc5c4)c3)CC2)=C(c2ccc(Cl)cc2)C1", "note": "[S8048]", "values": [{"measurement": "IC50 cell viability", "setting": "[1]", "value": 13.1, "unit": "µM"}, {"measurement": "IC50 cell viability", "setting": "[2]", "value": 12.1, "unit": "µM"}]}
{"smiles": "CC(C)(C)Cn1c(N)nc2ccc(-c3[nH]c(C(C)(C)C)nc3-c3ccc(F)cc3)nc21", "note": "[S1494]", "values": [{"measurement": "IC50 cell viability", "setting": "[1]", "value": 4.04, "unit": "µM"}, {"measurement": "IC50 cell viability", "setting": "[2]", "value": 3.46, "unit": "µM"}]}
{"smiles": "Cc1ccc(NC(=O)c2ccc(CN3CCN(C)CC3)cc2)cc1Nc1nccc(-c2cccnc2)n1", "note": "[S1026]", "values": [{"measurement": "IC50 cell viability", "setting": "[1]", "value": 15, "unit": "µM"}, {"measurement": "IC50 cell viability", "setting": "[2]", "value": 14.8, "unit": "µM"}]}
{"smiles": "C=CC(=O)Nc1cc(Nc2nccc(-c3cn(C)c4ccccc34)n2)c(OC)cc1N(C)CCN(C)C", "note": "[S7297]", "values": [{"measurement": "IC50 cell viability", "setting": "[1]", "value": 11.4, "unit": "µM"}, {"measurement": "IC50 cell viability", "setting": "[2]", "value": 9.5, "unit": "µM"}]}
{"smiles": "Clc1ccc(Nc2nnc(Cc3ccncc3)c3ccccc23)cc1", "note": "[S1101]", "values": [{"measurement": "IC50 cell viability", "setting": "[1]", "value": 30.8, "unit": "µM"}, {"measurement": "IC50 cell viability", "setting": "[2]", "value": 24.3, "unit": "µM"}]}
{"smiles": "O=C1CN2Cc3c(ccc(Cl)c3Cl)N=C2N1", "note": "[S3172]", "values": [{"measurement": "IC50 cell viability", "setting": "[1]", "value": 8.82, "unit": "µM"}, {"measurement": "IC50 cell viability", "setting": "[2]", "value": 8.26, "unit": "µM"}]}
{"smiles": "Cn1cnc2c(F)c(Nc3ccc(Br)cc3Cl)c(C(=O)NOCCO)cc21", "note": "[S1008]", "values": [{"measurement": "IC50 cell viability", "setting": "[1]", "value": 1.66, "unit": "µM"}, {"measurement": "IC50 cell viability", "setting": "[2]", "value": 1.44, "unit": "µM"}]}
{"smiles": "Cc1cccc(C)c1NC1=NCCCS1", "note": "[S2516]", "values": [{"measurement": "IC50 cell viability", "setting": "[1]", "value": 15.3, "unit": "µM"}, {"measurement": "IC50 cell viability", "setting": "[2]", "value": 14.1, "unit": "µM"}]}
{"smiles": "COc1cc(Nc2ncc3c(n2)-c2ccc(Cl)cc2C(c2c(F)cccc2OC)=NC3)ccc1C(=O)O", "note": "[S1133]", "values": [{"measurement": "IC50 cell viability", "setting": "[1]", "value": 8.24, "unit": "µM"}, {"measurement": "IC50 cell viability", "setting": "[2]", "value": 10.5, "unit": "µM"}]}
{"smiles": "Nc1cccc2c1C(=O)N(C1CCC(=O)NC1=O)C2=O", "note": "(configuration not stated) [S1567]", "values": [{"measurement": "IC50 cell viability", "setting": "[1]", "value": 15.7, "unit": "µM"}, {"measurement": "IC50 cell viability", "setting": "[2]", "value": 15.5, "unit": "µM"}]}
{"smiles": "COc1cc2ncnc(Nc3ccc(F)c(Cl)c3)c2cc1NC(=O)/C=C/CN1CCCCC1", "note": "[S2727]", "values": [{"measurement": "IC50 cell viability", "setting": "[1]", "value": 30.1, "unit": "µM"}, {"measurement": "IC50 cell viability", "setting": "[2]", "value": 29.6, "unit": "µM"}]}
{"smiles": "Nc1ncn([C@H]2C[C@H](O)[C@@H](CO)O2)c(=O)n1", "note": "[S1200]", "values": [{"measurement": "IC50 cell viability", "setting": "[1]", "value": 74.8, "unit": "µM"}, {"measurement": "IC50 cell viability", "setting": "[2]", "value": 77.2, "unit": "µM"}]}
{"smiles": "CS(=O)(=O)c1ccc(C(=O)Nc2ccc(Cl)c(-c3ccccn3)c2)c(Cl)c1", "note": "[S1082]", "values": [{"measurement": "IC50 cell viability", "setting": "[1]", "value": 61.8, "unit": "µM"}, {"measurement": "IC50 cell viability", "setting": "[2]", "value": 69, "unit": "µM"}]}
{"smiles": "Nc1nc(Cl)nc2c1ncn2[C@H]1C[C@H](O)[C@@H](CO)O1", "note": "[S1199]", "values": [{"measurement": "IC50 cell viability", "setting": "[1]", "value": 55.1, "unit": "µM"}, {"measurement": "IC50 cell viability", "setting": "[2]", "value": 49.9, "unit": "µM"}]}
{"smiles": "FC(F)(F)c1ccc(/C=C/c2nc(COc3ccc(CCCCn4ccnn4)cc3)co2)cc1", "note": "[S2216]", "values": [{"measurement": "IC50 cell viability", "setting": "[1]", "value": 41.1, "unit": "µM"}, {"measurement": "IC50 cell viability", "setting": "[2]", "value": 37.6, "unit": "µM"}]}
{"smiles": "CC(C)OC(=O)C(C(=O)OC(C)C)=C1SC=CS1", "note": "[S1137]", "values": [{"measurement": "IC50 cell viability", "setting": "[1]", "value": 38.1, "unit": "µM"}, {"measurement": "IC50 cell viability", "setting": "[2]", "value": 36.1, "unit": "µM"}]}
{"smiles": "Cn1c(CCCC(=O)O)nc2cc(N(CCCl)CCCl)ccc21", "note": "[S1212]", "values": [{"measurement": "IC50 cell viability", "setting": "[1]", "value": 15.8, "unit": "µM"}, {"measurement": "IC50 cell viability", "setting": "[2]", "value": 17, "unit": "µM"}]}
{"smiles": "CN(C)/N=N/c1[nH]cnc1C(N)=O", "note": "[S1221]", "values": [{"measurement": "IC50 cell viability", "setting": "[1]", "value": 52.8, "unit": "µM"}, {"measurement": "IC50 cell viability", "setting": "[2]", "value": 51.9, "unit": "µM"}]}
{"smiles": "CCOc1nc2cccc(C(=O)O)c2n1Cc1ccc(-c2ccccc2-c2nnn[nH]2)cc1", "note": "[S1578]", "values": [{"measurement": "IC50 cell viability", "setting": "[1]", "value": 1.56, "unit": "µM"}, {"measurement": "IC50 cell viability", "setting": "[2]", "value": 1.3, "unit": "µM"}]}
{"smiles": "O=P1(NCCCl)OCCCN1CCCl", "note": "(configuration not stated) [S1302]", "values": [{"measurement": "IC50 cell viability", "setting": "[1]", "value": 53, "unit": "µM"}, {"measurement": "IC50 cell viability", "setting": "[2]", "value": 55.2, "unit": "µM"}]}
{"smiles": "C[C@]1(O)C[C@@H](c2nc(-c3ccc4ccc(-c5ccccc5)nc4c3)c3c(N)nccn32)C1", "note": "[S1091]", "values": [{"measurement": "IC50 cell viability", "setting": "[1]", "value": 48.3, "unit": "µM"}, {"measurement": "IC50 cell viability", "setting": "[2]", "value": 49.9, "unit": "µM"}]}
{"smiles": "CCCCCOC(=O)Nc1nc(=O)n([C@@H]2O[C@H](C)[C@@H](O)[C@H]2O)cc1F", "note": "[S1156]", "values": [{"measurement": "IC50 cell viability", "setting": "[1]", "value": 34, "unit": "µM"}, {"measurement": "IC50 cell viability", "setting": "[2]", "value": 34.3, "unit": "µM"}]}
{"smiles": "O=C(O)C(=O)O.[NH-][C@@H]1CCCC[C@H]1[NH-].[Pt+2]", "note": "[S1224]", "values": [{"measurement": "IC50 cell viability", "setting": "[1]", "value": 60.3, "unit": "µM"}, {"measurement": "IC50 cell viability", "setting": "[2]", "value": 57.3, "unit": "µM"}]}
{"smiles": "Cc1ccccc1C(=O)Nc1ccc(C(=O)N2CCCC(O)c3cc(Cl)ccc32)c(C)c1", "note": "(configuration not stated) [S2593]", "values": [{"measurement": "IC50 cell viability", "setting": "[1]", "value": 3.68, "unit": "µM"}, {"measurement": "IC50 cell viability", "setting": "[2]", "value": 3.47, "unit": "µM"}]}
{"smiles": "C[C@@H](O[C@H]1OCCN(Cc2n[nH]c(=O)[nH]2)[C@H]1c1ccc(F)cc1)c1cc(C(F)(F)F)cc(C(F)(F)F)c1", "note": "[S1189]", "values": [{"measurement": "IC50 cell viability", "setting": "[1]", "value": 13.9, "unit": "µM"}, {"measurement": "IC50 cell viability", "setting": "[2]", "value": 14.2, "unit": "µM"}]}
{"smiles": "C=C(c1ccc(C(=O)O)cc1)c1cc2c(cc1C)C(C)(C)CCC2(C)C", "note": "[S2098]", "values": [{"measurement": "IC50 cell viability", "setting": "[1]", "value": 19.7, "unit": "µM"}, {"measurement": "IC50 cell viability", "setting": "[2]", "value": 21.3, "unit": "µM"}]}
{"smiles": "CC(=O)O[C@]1(C(C)=O)CC[C@H]2[C@@H]3C=C(C)C4=CC(=O)CC[C@]4(C)[C@H]3CC[C@@]21C", "note": "[S1304]", "values": [{"measurement": "IC50 cell viability", "setting": "[1]", "value": 2.01, "unit": "µM"}, {"measurement": "IC50 cell viability", "setting": "[2]", "value": 1.81, "unit": "µM"}]}
